Laboratory results from ChEMBL document CHEMBL4020749, “Phenanthridin-6-one derivatives as the first class of non-steroidal pharmacological chaperones for Niemann-Pick disease type C1 protein” (Bioorg Med Chem Lett, 2017).
Active and inactive are the calls of the source. No cut-off for these calls is given here.

How the values were obtained:
[1] = molecular target: NPC intracellular cholesterol transporter 1 (Homo sapiens, UniProt O15118, I1061T); assay: (§1) Chaperone activity at FLAG/GFP-tagged NPC1 I1061T mutant (unknown origin) expressed in HEK293 cells assessed as increase in localization of protein mutant in late endosomes after 24 hrs by Hoechst 33342 staining based fluorescence microscopic analysis; type: cell-based
[2] = Solubility of the compound in DMEM medium at 30 uM; type: physicochemical
[3] = tested on: T1, NPC intracellular cholesterol transporter 1 (Homo sapiens), O15118 [I1061T]; assay: Chaperone activity at FLAG/GFP-tagged NPC1 I1061T mutant (unknown origin) expressed in HEK293 cells assessed as increase in localization of protein mutant in late endosomes at 30 uM after 24 hrs by Hoechst 33342 staining based fluorescence microscopic analysis; type: cell-based
T1 sequence (whole entry): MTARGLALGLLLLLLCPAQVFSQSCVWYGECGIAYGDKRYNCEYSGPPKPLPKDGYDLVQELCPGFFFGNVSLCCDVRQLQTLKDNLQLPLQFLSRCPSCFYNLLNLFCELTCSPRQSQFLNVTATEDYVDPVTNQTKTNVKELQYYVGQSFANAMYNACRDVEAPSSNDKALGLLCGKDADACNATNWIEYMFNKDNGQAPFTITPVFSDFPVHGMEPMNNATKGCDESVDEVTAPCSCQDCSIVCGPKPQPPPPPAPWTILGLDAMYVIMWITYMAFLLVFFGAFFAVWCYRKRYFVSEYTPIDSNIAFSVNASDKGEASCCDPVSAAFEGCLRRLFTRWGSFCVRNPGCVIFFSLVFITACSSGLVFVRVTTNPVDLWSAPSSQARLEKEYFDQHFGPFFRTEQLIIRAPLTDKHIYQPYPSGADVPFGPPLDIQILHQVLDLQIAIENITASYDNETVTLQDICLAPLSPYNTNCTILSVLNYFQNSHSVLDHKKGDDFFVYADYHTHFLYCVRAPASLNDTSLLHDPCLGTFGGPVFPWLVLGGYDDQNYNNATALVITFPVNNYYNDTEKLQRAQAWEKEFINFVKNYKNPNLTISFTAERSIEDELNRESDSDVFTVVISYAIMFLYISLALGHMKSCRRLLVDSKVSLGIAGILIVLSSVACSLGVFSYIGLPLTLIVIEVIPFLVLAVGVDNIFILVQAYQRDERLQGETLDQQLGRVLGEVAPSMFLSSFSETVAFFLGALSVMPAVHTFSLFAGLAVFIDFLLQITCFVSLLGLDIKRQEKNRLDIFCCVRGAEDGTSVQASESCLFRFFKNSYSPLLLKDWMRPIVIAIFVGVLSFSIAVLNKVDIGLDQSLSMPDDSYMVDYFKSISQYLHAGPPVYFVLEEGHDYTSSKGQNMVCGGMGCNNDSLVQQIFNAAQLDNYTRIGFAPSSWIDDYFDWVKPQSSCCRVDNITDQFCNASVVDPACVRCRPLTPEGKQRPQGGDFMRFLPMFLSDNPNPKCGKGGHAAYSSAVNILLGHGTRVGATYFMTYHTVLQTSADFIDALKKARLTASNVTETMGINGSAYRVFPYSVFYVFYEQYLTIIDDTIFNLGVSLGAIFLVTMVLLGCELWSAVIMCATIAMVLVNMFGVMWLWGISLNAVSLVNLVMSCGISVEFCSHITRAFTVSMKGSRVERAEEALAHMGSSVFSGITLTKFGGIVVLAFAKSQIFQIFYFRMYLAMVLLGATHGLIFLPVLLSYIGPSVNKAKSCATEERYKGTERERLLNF

[4] = Solubility of the compound in DMEM medium at 10 uM; type: physicochemical
HEK293 [5] = assay: Chaperone activity at FLAG/GFP-tagged human NPC1L1 L1072T/I1168T double mutant expressed in HEK293 cells assessed as localization of protein mutant in plasma membrane at 3 uM after 24 hrs fluorescence microscopic analysis; type: cell-based
[6] = tested on: T1, NPC intracellular cholesterol transporter 1 (Homo sapiens), O15118 [I1061T]; assay: as §1; type: cell-based
HEK293 [7] = assay: Stabilization of FLAG/GFP-tagged human NPC1L1 L1072T/I1168T double mutant expressed in HEK293 cells assessed as up regulation of NPC1L1 L1072T/I1168T double mutant expression at 3 to 30 uM after 24 hrs fluorescence microscopic analysis; type: cell-based
HEK293 [8] = assay: Chaperone activity at FLAG/GFP-tagged human NPC1L1 L1072T/I1168T double mutant expressed in HEK293 cells assessed as localization of protein mutant in plasma membrane at 10 uM after 24 hrs fluorescence microscopic analysis; type: cell-based
[9] = tested on: T1, NPC intracellular cholesterol transporter 1 (Homo sapiens), O15118 [I1061T]; assay: Stabilization of FLAG/GFP-tagged NPC1 I1061T mutant (unknown origin) expressed in HEK293 cells assessed as up regulation of NPC1 I1061T mutant expression after 24 hrs by Hoechst 33342 staining based fluorescence microscopic analysis; type: cell-based
[10] = tested on: T1, NPC intracellular cholesterol transporter 1 (Homo sapiens), O15118 [I1061T]; assay: Chaperone activity at FLAG/GFP-tagged NPC1 I1061T mutant (unknown origin) expressed in HEK293 cells assessed as increase in localization of protein mutant in late endosomes at 10 uM after 24 hrs by Hoechst 33342 staining based fluorescence microscopic analysis; type: cell-based
[11] = tested on: T1, NPC intracellular cholesterol transporter 1 (Homo sapiens), O15118 [I1061T]; assay: Chaperone activity at FLAG/GFP-tagged NPC1 I1061T mutant (unknown origin) expressed in HEK293 cells assessed as increase in localization of protein mutant in late endosomes at 1 uM after 24 hrs by Hoechst 33342 staining based fluorescence microscopic analysis; type: cell-based

| EC50 ([1]; read-out: EC50) [µM] | Activity [3] | Compound | also measured |
| --- | --- | --- | --- |
| 3.6 | – | NC(=O)c1ccc2c(c1)c1ccccc1c(=O)n2CC1CCCCC1 | solubility [2]: Insoluble |
| > 30 | – | Cn1c(=O)c2ccccc2c2cc(C(N)=O)ccc21 | – |
| – | inactive | CCCCn1c(=O)c2ccccc2c2cc(C(=O)N3CCCC3)ccc21 | – |
| > 3 | – | CCCCCCn1c(=O)c2ccccc2c2cc(C(N)=O)ccc21 | solubility [4]: Insoluble |
| – | inactive | CCCCn1c(=O)c2ccccc2c2cc(N(C)C(C)=O)ccc21 | – |
| – | inactive | CCCCn1c(=O)c2ccccc2c2cc(C(=O)NC3CCCCC3)ccc21 | – |
| – | inactive | CCCCn1c(=O)c2ccccc2c2cc(C(=O)O)ccc21 | – |
| – | inactive | CCCCn1c(=O)c2ccccc2c2cc(C(=O)NC(C)(C)C)ccc21 | – |
| – | – | C[C@H](CCC(=O)N(C)C)[C@H]1CC[C@H]2[C@@H]3CC=C4C[C@@H](OC(=O)N(CCO)CCO)CC[C@]4(C)[C@H]3CC[C@]12C | Activity (HEK293 [5]): Active |
| – | – | CCCCCn1c(=O)c2ccccc2c2ccc(C(N)=O)cc21 | EC50 [1]: Not Active; solubility [4]: Insoluble |
| > 3 | – | CCCCCCCn1c(=O)c2ccccc2c2cc(C(N)=O)ccc21 | solubility [4]: Insoluble |
| > 30 | – | CCCCn1c(=O)c2ccccc2c2cc(C(C)O)ccc21 (stereo not given) | – |
| – | inactive | CCCCn1c(=O)c2ccccc2c2cc(C(=O)N3CCOCC3)ccc21 | – |
| – | inactive | CCCCn1c(=O)c2ccccc2c2cc(C(=O)NCc3ccccc3)ccc21 | – |
| – | inactive | CCCC(=O)N1CC2=C(CCCC2)c2cc(C(N)=O)ccc21 | – |
| – | inactive | CCCCn1c(=O)c2ccccc2c2cc(NC(=O)C(F)(F)F)ccc21 | – |
| 4.2 | – | CCCCCn1c(=O)c2ccccc2c2cc(C(N)=O)ccc21 | Activity [6]: Dose-dependent effect; Activity (HEK293 [7]): inactive; Activity (HEK293 [8]): inactive; Activity [9]: Dose-dependent effect |
| – | – | CCCCCn1c(=O)c2ccccc2c2c(C(N)=O)cccc21 | EC50 [1]: Not Active; solubility [4]: Insoluble |
| 13 | – | CCCCn1c(=O)c2c(c3cc(C(N)=O)ccc31)CCCCC2 | – |
| – | inactive | CCCCn1c(=O)c2ccccc2c2cc(C(=O)NC(C)C)ccc21 | – |

| EC50 ([1]; read-out: EC50) [µM] | Activity [3] | Compound | also measured |
| --- | --- | --- | --- |
| – | – | CCCCCn1c(=O)c2ccccc2c2cccc(C(N)=O)c21 | EC50 [1]: Not Active; solubility [2]: Insoluble |
| – | inactive | CCCCN1C(=O)c2ccccc2Oc2cc(C(N)=O)ccc21 | – |
| – | inactive | CCCCn1c(=O)c2ccccc2c2cc(C(F)(F)F)ccc21 | – |
| 14 | – | CCCCn1c(=O)c2ccccc2c2cc(NS(C)(=O)=O)ccc21 | – |
| – | inactive | CCCCn1c(=O)c2ccccc2c2cc(F)ccc21 | – |
| – | inactive | CCCCn1c(=O)c2ccccc2c2cc(C)ccc21 | – |
| > 30 | – | CCCCn1c(=O)c2ccccc2c2cc(C(C)=O)ccc21 | – |
| – | inactive | O=C(O)Cc1cccc(OCCCN(Cc2cccc(C(F)(F)F)c2Cl)CC(c2ccccc2)c2ccccc2)c1 | – |
| – | inactive | CCCCn1c(=O)c2ccccc2c2cc(OC(=O)N3CCOCC3)ccc21 | – |
| – | inactive | CCCCn1c(=O)c2ccccc2c2cc(C(=O)N(CC)CC)ccc21 | – |
| > 30 | – | CCCCn1c(=O)c2ccccc2c2cc(C(=O)N(C)C)ccc21 | – |
| – | – | NC(=O)c1ccc2c(c1)c1ccccc1c(=O)n2CCO | EC50 [1]: Not Active |
| 11 | – | CCCCn1c(=O)c2ccccc2c2cc(C(N)=O)ccc21 | – |
| 19 | – | CCCn1c(=O)c2ccccc2c2cc(C(N)=O)ccc21 | – |
| – | inactive | CCCCn1c(=O)c2ccccc2c2cc(C(=O)N3CCCCC3)ccc21 | – |
| – | inactive | O=S(=O)(c1ccccc1)N(CC(F)(F)F)c1ccc(C(O)(C(F)(F)F)C(F)(F)F)cc1 | – |
| > 30 | – | CCCCn1c(=O)c2ccccc2c2cc(C(=O)N(CCO)CCO)ccc21 | – |
| – | inactive | CCCCNC(=O)c1ccccc1-c1cccc(C(N)=O)c1 | – |
| 14 | – | CCCCn1c(=O)c2ccccc2c2cc(NC(C)=O)ccc21 | – |
| – | inactive | CCCCn1c(=O)c2ccccc2c2cc(C(=O)NC3CCCC3)ccc21 | – |

| EC50 ([1]; read-out: EC50) [µM] | Activity [3] | Compound | also measured |
| --- | --- | --- | --- |
| – | inactive | CCCCn1c(=O)c2ccccc2c2cc(NC(N)=O)ccc21 | – |
| – | – | CC(C)n1c(=O)c2ccccc2c2cc(C(N)=O)ccc21 | EC50 [1]: Not Active |
| > 30 | – | CCCCn1c(=O)c2ccccc2c2cc(O)ccc21 | – |
| > 30 | – | CCn1c(=O)c2ccccc2c2cc(C(N)=O)ccc21 | – |
| 30 | – | CCCCn1c(=O)c2c(c3cc(C(N)=O)ccc31)CCCC2 | – |
| > 30 | – | CCCCn1c(=O)c2ccccc2c2cc(CO)ccc21 | – |
| 16 | – | C[Si](C)(C)CCOCn1c(=O)c2ccccc2c2cc(C(N)=O)ccc21 | – |
| – | inactive | CCCCn1c(=O)c2ccccc2c2ccccc21 | – |
| – | inactive | CCCCn1c(=O)c2ccccc2c2cc(C(=O)NC3CC3)ccc21 | – |
| – | inactive | CCCCn1c(=O)c2c(c3cc(C(N)=O)ccc31)CCC2 | – |
| – | inactive | CCCCn1c(=O)c2ccccc2c2cc(N)ccc21 | – |
| – | – | COCCn1c(=O)c2ccccc2c2cc(C(N)=O)ccc21 | EC50 [1]: Not Active |
| – | – | CCCCn1c(=O)c2c(c3cc(C(N)=O)ccc31)CCCCCC2 | solubility [2]: Insoluble; Activity [10]: inactive |
| – | inactive | CCCCn1c(=O)c2ccccc2c2cc(C(O)(C(F)(F)F)C(F)(F)F)ccc21 | – |
| – | inactive | CCCCN1C(=O)CCc2cc(C(N)=O)ccc21 | – |
| 0.15 | – | CC(C)CCC[C@@H](C)[C@H]1CC[C@H]2[C@@H]3C[C@@H](O)[C@@]4(O)C[C@@H](OCC(=O)N5CCOCC5)CC[C@]4(C)[C@H]3CC[C@]12C | Activity [11]: Active |
| > 30 | – | CCCCn1c(=O)c2ccccc2c2cc(C(=O)NC)ccc21 | – |
| > 30 | – | C=CCn1c(=O)c2ccccc2c2cc(C(N)=O)ccc21 | – |
